In patent publication US9539239B1, “Compositions and methods for treatment of neurodegenerative disease” (priority 2010, dated 2017):

B1: FLT3 ligand: RTK ligand; ligand of the receptor tyrosine kinase FLT3 (protein, UniProt P49771 27-235, looked up)
Fms-related tyrosine kinase 3 …: TQDCSFQHSPISSDFAVKIRELSDYLLQDYPVTVASNLQDEELCGGLWRLVLAQRWMERLKTVAGSKMQGLLERVNTEIHFVTKCAFQPPPSCLRFVQTNISRLLQETSEQLVALKPWITRQNFSRCLELQCQPDSSTLPPPWSPRPLEATAPTAPQPPLLLLLLLPVGLLLLAAAWCLHWQRTRRRTPRPGEQVPPVPSPQDLLLVEH

system: retinal ganglion cells (RGCs); assay: RGC survival in primary retinal ganglion cell culture (high-content screening); format: cell-based, mouse and rat; conditions: potency relative to sunitinib; baseline culture with 2.5 μM forskolin
Description: (§1) In this Example, certain compounds were administered to retinal ganglion cells (RGCs) in cell culture to determine the effects of the compounds on neuronal count and neurite growth.
We established a robust high-content screening system combining the immunopanning- or other immunobead-based purification of primary mouse and rat RGCs and automated fluorescence-based imaging analysis (see, e.g., U.S. Patent Publication No. 2007/0185069, incorporated herein by reference). To enhance the assay sensitivity, the culture condition is defined to support a baseline level of RGC viability (20˜60% surviving RGCs after three days in culture) and neurite growth by 2.5 μM forskolin. […]

Molecule | RGC Survival Activity
Cc1[nH]c(/C=C2\C(=O)Nc3ccc([S+](C)[O-])cc32)c(C)c1C(=O)N1CCOCC1 (centres unmarked) | ** (approximately 40-80% as potent as sunitinib)
Cc1[nH]c(/C=C2\C(=O)Nc3ccc([S+](C)[O-])cc32)c(C)c1C(=O)N1CCN(C)CC1 (centres unmarked) | * (approximately 10-40% as potent as sunitinib)
C[S+]([O-])c1ccc2c(c1)/C(=C/c1cc3c([nH]1)CC(C)(C)CC3=O)C(=O)N2 (centres unmarked) [Example 2] | *** (at least approximately 80% as potent as sunitinib)
C[S+]([O-])c1ccc2c(c1)/C(=C/c1cc3c([nH]1)CCCC3=O)C(=O)N2 (centres unmarked) [Example 3] | *** (at least approximately 80% as potent as sunitinib)
Cc1c([S+](C)[O-])ccc2c1/C(=C/c1cc3c([nH]1)CCCC3)C(=O)N2 (centres unmarked) [Example 5] | * (approximately 10-40% as potent as sunitinib)
C[S+]([O-])c1ccc2c(c1)/C(=C/c1cc3c([nH]1)CCCC3)C(=O)N2 (centres unmarked) [Example 6] | *** (at least approximately 80% as potent as sunitinib)
CC[S+]([O-])c1ccc2c(c1)/C(=C/c1cc3c([nH]1)CCCC3)C(=O)N2 (centres unmarked) [Example 7] | *** (at least approximately 80% as potent as sunitinib)
Cc1c(/C=C2\C(=O)Nc3ccc(C(=O)N(C)C)cc32)[nH]c2c1CC(C)(C)CC2 [Example 8] | ** (approximately 40-80% as potent as sunitinib)
CON(C)C(=O)c1ccc2c(c1)/C(=C/c1[nH]c3c(c1C)C(=O)C(C)(C)CC3)C(=O)N2 [Example 9] | *** (at least approximately 80% as potent as sunitinib)
CCN(C)C(=O)c1ccc2c(c1)/C(=C/c1[nH]c3c(c1C)C(=O)C(C)(C)CC3)C(=O)N2 [Example 10] | *** (at least approximately 80% as potent as sunitinib)
CCCCN(C)C(=O)c1ccc2c(c1)/C(=C/c1[nH]c3c(c1C)C(=O)C(C)(C)CC3)C(=O)N2 [Example 11] | ** (approximately 40-80% as potent as sunitinib)
Cc1c(/C=C2\C(=O)Nc3ccc(C(=O)N4CCCCCC4)cc32)[nH]c2c1C(=O)C(C)(C)CC2 [Example 12] | ** (approximately 40-80% as potent as sunitinib)
Cc1c(/C=C2\C(=O)Nc3ccc(C(=O)N4CCCC4)cc32)[nH]c2c1C(=O)C(C)(C)CC2 [Example 13] | *** (at least approximately 80% as potent as sunitinib)
CN(C)C(=O)c1ccc2c(c1)/C(=C/c1cc3c([nH]1)CCCC3=O)C(=O)N2 [Example 14] | *** (at least approximately 80% as potent as sunitinib)
CN(C)C(=O)c1ccc2c(c1)/C(=C/c1cc3c([nH]1)CC(C)(C)CC3=O)C(=O)N2 [Example 15] | ** (approximately 40-80% as potent as sunitinib)
Cc1c(/C=C2\C(=O)Nc3ccc(C(=O)N(C)C)cc32)[nH]c2c1C(=O)C(C)(C)CC2 [Example 16] | *** (at least approximately 80% as potent as sunitinib)
CCN(CC)CCNC(=O)c1c(C)[nH]c(/C=C2\C(=O)Nc3ccc([S+](C)[O-])cc32)c1C (centres unmarked) [Example 17] | *** (at least approximately 80% as potent as sunitinib)
CCN(CC)CCNC(=O)c1c(C)[nH]c(/C=C2\C(=O)Nc3ccc([S+](C)[O-])cc32)c1C (centres unmarked) [Example 18] | *** (at least approximately 80% as potent as sunitinib)
CCN(CC)CCNC(=O)c1c(C)[nH]c(/C=C2\C(=O)Nc3ccc([S+]([O-])CC)cc32)c1C (centres unmarked) [Example 19] | *** (at least approximately 80% as potent as sunitinib)
CCN(CC)CCNC(=O)c1c(C)[nH]c(/C=C2\C(=O)Nc3ccc(C(=O)N4CCCC4)cc32)c1C [Example 23] | *** (at least approximately 80% as potent as sunitinib)
CCN(CC)CCNC(=O)c1c(C)[nH]c(/C=C2\C(=O)Nc3ccc(C(=O)N(C)OC)cc32)c1C [Example 24] | *** (at least approximately 80% as potent as sunitinib)
Cc1[nH]c(/C=C2\C(=O)Nc3ccc(C(=O)N(C)C)cc32)c(C)c1C(=O)NCCN1CCCC1 [Example 25] | *** (at least approximately 80% as potent as sunitinib)
CCN(CC)CCNC(=O)c1c(C)[nH]c(/C=C2\C(=O)Nc3ccc(C(=O)N(C)C)cc32)c1C [Example 26] | *** (at least approximately 80% as potent as sunitinib)

system: retinal ganglion cells (RGCs); assay: RGC neurite growth in primary retinal ganglion cell culture (high-content screening); format: cell-based, mouse and rat; conditions: potency relative to sunitinib; baseline culture with 2.5 μM forskolin
Description: as §1
We established a robust high-content screening system combining the immunopanning- or other immunobead-based purification of primary mouse and rat RGCs and automated fluorescence-based imaging analysis (see, e.g., U.S. Patent Publication No. 2007/0185069, incorporated herein by reference). To enhance the assay sensitivity, the culture condition is defined to support a baseline level of RGC viability (20˜60% surviving RGCs after three days in culture) and neurite growth by 2.5 μM forskolin.
In addition, certain tested compounds stimulated RGC neurite growth.

Molecule | Neurite Promotion
Cc1c([S+](C)[O-])ccc2c1/C(=C/c1cc3c([nH]1)CCCC3)C(=O)N2 (centres unmarked) [Example 5] | ** (approximately 40-80% as potent as sunitinib)
CCN(CC)CCNC(=O)c1c(C)[nH]c(/C=C2\C(=O)Nc3ccc([S+](C)[O-])cc32)c1C (centres unmarked) [Example 17] | *** (at least approximately 80% as potent as sunitinib)
CCN(CC)CCNC(=O)c1c(C)[nH]c(/C=C2\C(=O)Nc3ccc([S+](C)[O-])cc32)c1C (centres unmarked) [Example 18] | *** (at least approximately 80% as potent as sunitinib)

system: RGC; assay: Effect of FLT3 ligand on RGC survival; format: cell-based; conditions: 4 ng/ml (its EC50)

Molecule | reduction of RGC survival
B1 | does not do so

same assay, conditions: 16 ng/ml, four times its EC50

Molecule | reduction of RGC survival [%]
B1 | 38.3

system: not given; assay: not given; conditions: cited from earlier work

Molecule | EC50 [ng/mL]
B1 | 4
